Data on ten compounds can be found in patent US20080318911A1, “20-Cyclopropyl, 26,27-Alkyl/Haloalkyl Vitamin D3 Compounds and Methods of Use Thereof” (BIOXELL S.P.A., priority 2004, published 2008).

The structures appear in SMILES notation. Bounds are passed on as bounds.

Series [1] concerns Renin mRNA in As4.1 cells. Put plainly: Renin mRNA inhibition in murine juxtaglomerular cell line As4.1. It is filed as cell-based. The note with it: Mus musculus, 24 h, real time PCR normalized versus β-actin, read-out: Renin mRNA inh.As4.1/wt. The protocol:
As4.1 cells (80% subconfluent) were treated in complete medium with compounds of the invention at 10^−8, 10^−9 and 10^−10 M for 24 h. Total RNA was extracted using RNeasy Mini kit (Qiagen); treated with DNase I (Qiagen) and Reverse Transcription Reagent (Applied Biosystems) with Random Examers were used for reverse transcription according to the manufacturers' instructions. Real Time PCR analysis was performed in multiplex using commercially available β-actin VIC-conjugated probe (cat. n. 4352341E, Applied Biosystems) and custom designed mRENIN FAM-conjugated probe (Assay by Design, Applied Biosystems; Forward: […]; Reverse: […]; Probe: FAM-[…]-MGB). Reactions were performed in a 25 μL volume containing 12,5 μl 2× Master Mix (Applied Biosystems), 10 ng/reaction/well cDNA, and 2,5 μM each gene-specific primer. An ABI PRISM 7700 analyzer (Applied Biosystems) was used at 50° C. for 2 minutes and 95° C. for 10 minutes, followed by 40 cycles at 95° C. for 15 seconds and 60° C. for 1 minute. Cycle threshold (Ct) values were exported onto Excel worksheets for analysis. Test cDNA results were normalized versus mouse β-actin housekeeping gene. Fold differences in gene expression between the subtracted versus the unsubtracted populations were expressed using the method of 2^−ΔΔCt. (Table 6)

A short description of series [2]: Determination of Maximum Tolerated Dose (MTD) in mice. As to conditions: mouse, in vivo, po; female C57BL/6 mice, p.o. daily for four days; highest dose without hypercalcemia (serum calcium >10.7 mg/dl).
Series [3] concerns human stromal bladder cells. Nature of the series: Basal growth of human stromal bladder cells. It is filed as cell-based. The note with it: FIG. 2. The text has this: The Inventors confirmed the presence of vitamin D receptors (VDRs), as previously reported in the literature, on these cells (see below in FIG. 1).
The maximum tolerated dose (MTD) in rats is also listed for each compound (Table 5).

The next series relates to NHEK. Put plainly: Proliferation assay: NHEK normal human keratinocytes. It is filed as cell-based. The note with it: 72 h culture, CyQuant proliferation assay. The protocol:
(§1) Bladder cancer cell lines (T24, RT112, HT1376 and RT4 are human bladder cancer cell lines; NHEK are normal human keratinocytes) were obtained from the European Collection of Cell Cultures (Salisbury, UK). Cells were plated at 3×10^3 per well, in flat bottomed 96-well plates in 100 μl of DMEM medium containing: 5% Fetal Clone 1,50 μg/l gentamicin, 1 mM sodium pyruvate and 1% non-essential amino acids. After culturing for 24 h at 37° C. in 5% CO2, to allow cells to adhere to the plates, VDR ligands (compounds (1)-(14)) were added at concentrations ranging from 100 μM to 0.3 μM in 100 μl of above-mentioned complete medium. After a further 72 h of culture, cell proliferation was measured using a fluorescence-based proliferation assay kit. (CyQuant Cell Proliferation Assay Kit, Molecular Probes, Eugene, Oreg., USA). The IC50 was calculated from the regression curve of the titration data.

A further series deals with RT112. Put plainly: Proliferation assay using bladder cancer cell lines: RT112. It is filed as cell-based, human. As to conditions: Homo sapiens, RT-112; 72 h culture, CyQuant proliferation assay. The procedure:
as §1

The subject of series [4] is IFN-γ production by allogeneic PBMC. Put plainly: IFN-γ production in the mixed leukocyte response (MLR). It counts as cell-based. As to conditions: 120 h; MLR of allogeneic PBMC, 5 days, ELISA; read-out: INF-γ IC50. The protocol:
Immature dendritic cells (DC) were prepared as described in Romani, N. et al. (Romani, N. et al. (1996) J. Immunol. Meth. 196:137). IFN-γ production by allogeneic T cell activation in the mixed leukocyte response (MLR) was determined as described in Penna, G., et al., J Immunol., 164: 2405-2411 (2000).
Briefly, peripheral blood mononuclear cells (PBMC) were separated from buffy coats by Ficoll gradient and the same number (3×10^5) of allogeneic PBMC from 2 different donors were co-cultured in 96-well flat-bottom plates. The vitamin D3 compounds were added to each of the cultures.

A further series concerns RT4. Nature of the series: Proliferation assay using bladder cancer cell lines: RT4. It counts as cell-based, human. As to conditions: Homo sapiens, RT-4; 72 h culture, CyQuant proliferation assay. The procedure: as §1

Broadly, the MTD is the largest dose that counted as tolerated. Turning to `C=C1/C(=C\C=C2/CCC[C@]3(C)C(C4(CC#CC(O)(C(F)(F)F)C(F)(F)F)CC4)=CCC23)CC(O)C[C@@H]1O` (stereo partly drawn) [Compound 4, 1α,25-Dihydroxy-16-ene-20-cyclopropyl-23,24-yne-26,27 hexafluoro-cholecalciferol], the IC50 in series [1] was determined as 2.99 nM; in the series with NHEK it was 2000 nM; with RT112 it was 13800 nM; in series [4] it was 0.045 nM; in the series with RT4, 1700 nM. Also, the maximum tolerated dose (MTD) at 4 days in series [2] is 0.3 µg/kg. Further, the “inhibiting the basal growth of bladder cells” value (“inhibiting the basal growth” below) in series [3] was “effective”.
For the compound `CC(C)(O)C#CCC1(C2=CCC3/C(=C/C=C4/CC(O)C[C@H](O)C4)CCC[C@]23C)CC1` (stereo partly drawn) [Compound 2, 1α,25-Dihydroxy-16-ene-20-cyclopropyl-23,24-yne-19-nor-cholecalciferol], the IC50 in series [1] was 97.2 nM; with RT112, over 30000 nM; in series [4], 0.0254 nM; with RT4 it was 6300 nM. Further, in series [2], the MTD at 4 days is 10 µg/kg.
As for `C=C1/C(=C\C=C2/CCC[C@]3(C)C(C4(CCCC(C)(C)O)CC4)=CCC23)CC(O)C[C@@H]1O` (stereo partly drawn) [Compound 10, 1α,25-Dihydroxy-16-ene-20-cyclopropyl-cholecalciferol], the IC50 in series [1] was 26.2 nM; with NHEK it was 5200 nM; in the series with RT112, 27600 nM; in the series with RT4, 2000 nM. For the same compound, the MTD at 4 days in series [2] is 1 µg/kg. The “inhibiting the basal growth” value in series [3] is given as “effective”.
`C[C@]12CCC/C(=C\C=C3\CC(O)C[C@H](O)C3)C1CC=C2C1(C/C=C/C(O)(C(F)(F)F)C(F)(F)F)CC1` (stereo partly drawn) [Compound 5, 1α,25-Dihydroxy-16-ene-20-cyclopropyl-23,24-E-ene-26,27-hexafluoro-19-nor-cholecalciferol]: the IC50 in series [1] worked out at 4.4 nM; in the series on NHEK, 4900 nM; with RT112 it was 14500 nM; in series [4], 0.012 nM; with RT4 it was 4600 nM.
In the case of `C=C1/C(=C\C=C2/CCC[C@]3(C)C(C4(C/C=C/C(O)(C(F)(F)F)C(F)(F)F)CC4)=CCC23)CC(O)C[C@@H]1O` (stereo partly drawn) [Compound 6, 1α,25-Dihydroxy-16-ene-20-cyclopropyl-23,24-E-ene-26,27-hexafluoro-cholecalciferol], the IC50 in series [1] came out at 0.547 nM; in the series on NHEK it was 5800 nM; with RT112, 10600 nM; in series [4], 0.04 nM; with RT4 it was 2300 nM. Besides, the MTD at 4 days in series [2] was 0.3 µg/kg. In addition, the “inhibiting the basal growth” value in series [3] was “effective”.
For the compound `C=C1/C(=C\C=C2/CCC[C@]3(C)C(C4(C/C=C\C(O)(C(F)(F)F)C(F)(F)F)CC4)=CCC23)CC(O)C[C@@H]1F` (stereo partly drawn) [Compound 14, 1α-Fluoro-25-hydroxy-16,23Z-diene-20-cyclopropyl-26,27-hexafluoro-cholecalciferol], the IC50 in series [1] worked out at 6 nM; with NHEK it was 4000 nM; in the series with RT112, 21000 nM; in series [4], 0.081 nM; in the series on RT4, 3100 nM. Further, the MTD at 4 days in series [2] was 1 µg/kg.
In the case of `C=C1/C(=C\C=C2/CCC[C@]3(C)C(C4(C/C=C/C(O)(C(F)(F)F)C(F)(F)F)CC4)=CCC23)CC(O)C[C@@H]1F` (stereo partly drawn) [Compound 13, 1α-Fluoro-25-hydroxy-16,23E-diene-20-cyclopropyl-26,27-hexafluoro-cholecalciferol], the IC50 worked out at 9.5 nM in series [1]; 5100 nM with NHEK; 17000 nM in the series with RT112; 0.065 nM in series [4]; 3600 nM with RT4. For the same compound, the MTD at 4 days in series [2] was 3 µg/kg.
With `C=C1/C(=C\C=C2/CCC[C@]3(C)C(C4(CC#CC(O)(C(F)(F)F)C(F)(F)F)CC4)=CCC23)CC(O)C[C@@H]1F` (stereo partly drawn) [Compound 12, 1α-Fluoro-25-hydroxy-16-ene-20-cyclopropyl-23-yne-26,27-hexafluoro-cholecalciferol], the IC50 in series [1] stood at 9.73 nM; in the series with NHEK, 1000 nM; in the series on RT112, 16900 nM; in series [4] it was 0.585 nM; in the series with RT4, 3600 nM. Moreover, the MTD at 4 days in series [2] was 0.3 µg/kg.
On to `C=C1/C(=C\C=C2/CCC[C@]3(C)C(C4(CC#CC(C)(C)O)CC4)=CCC23)CC(O)C[C@@H]1O` (stereo partly drawn) [Compound 1, 1α,25-Dihydroxy-16-ene-20-cyclopropyl-23,24-yne-cholecalciferol], for which the IC50 was 9.42 nM in series [1], over 30000 nM in the series with RT112, 0.0336 nM in series [4] and 10600 nM in the series on RT4. In addition, in series [2], the maximum tolerated dose (MTD) at 4 days was 10 µg/kg.
Take `C=C1/C(=C\C=C2/CCC[C@]3(C)C(C4(CC#CC(C)(C)O)CC4)=CCC23)CC(O)C[C@@H]1F` (stereo partly drawn) [Compound 11, 1α-Fluoro-25-hydroxy-16-ene-23-yne-20-cyclopropyl-cholecalciferol]: the IC50 in series [1] was 303 nM; in the series on RT112, over 30000 nM; in series [4], 0.0164 nM; with RT4, 16700 nM. The MTD at 4 days in series [2] was 100 µg/kg.
